Data as given in publication PMC8426238, “Synthesis and preclinical evaluation of [^11C]MTP38 as a novel PET ligand for phosphodiesterase 7 in the brain” (European Journal of Nuclear Medicine and Molecular Imaging, 2021).

Key:
[1] = test system: Purinergic P2X; assay: off-target screen panel; format: binding; details: Rabbit urinary bladder, [^3H]α, β-Methylene-ATP
[2] = molecular target: T1, Adenosine A1 (Homo sapiens, UniProt P30542); assay: off-target screen panel; format: binding; details: Human recombinant, [^3H]DPCPX
T1 construct: purchased Eurofins Panlabs Discovery Services (Taiwan)
T1 sequence (P30542 whole entry): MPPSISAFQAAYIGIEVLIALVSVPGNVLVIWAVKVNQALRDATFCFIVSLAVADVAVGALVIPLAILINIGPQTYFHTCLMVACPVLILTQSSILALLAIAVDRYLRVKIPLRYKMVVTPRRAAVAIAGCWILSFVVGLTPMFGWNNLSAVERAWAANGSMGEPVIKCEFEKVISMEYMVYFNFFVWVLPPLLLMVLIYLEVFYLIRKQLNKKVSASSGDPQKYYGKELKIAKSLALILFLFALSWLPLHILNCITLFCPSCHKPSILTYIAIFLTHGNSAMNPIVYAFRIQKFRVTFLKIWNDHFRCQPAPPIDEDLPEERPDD

[3] = molecular target: T2, Serotonin (5-Hydroxytryptamine) 5-HT2B (Homo sapiens, UniProt P41595); assay: off-target screen panel; format: binding; details: Human recombinant, [^3H]Lysergic acid diethylamide (LSD)
T2 construct: purchased Eurofins Panlabs Discovery Services (Taiwan)
T2 sequence (P41595 whole entry): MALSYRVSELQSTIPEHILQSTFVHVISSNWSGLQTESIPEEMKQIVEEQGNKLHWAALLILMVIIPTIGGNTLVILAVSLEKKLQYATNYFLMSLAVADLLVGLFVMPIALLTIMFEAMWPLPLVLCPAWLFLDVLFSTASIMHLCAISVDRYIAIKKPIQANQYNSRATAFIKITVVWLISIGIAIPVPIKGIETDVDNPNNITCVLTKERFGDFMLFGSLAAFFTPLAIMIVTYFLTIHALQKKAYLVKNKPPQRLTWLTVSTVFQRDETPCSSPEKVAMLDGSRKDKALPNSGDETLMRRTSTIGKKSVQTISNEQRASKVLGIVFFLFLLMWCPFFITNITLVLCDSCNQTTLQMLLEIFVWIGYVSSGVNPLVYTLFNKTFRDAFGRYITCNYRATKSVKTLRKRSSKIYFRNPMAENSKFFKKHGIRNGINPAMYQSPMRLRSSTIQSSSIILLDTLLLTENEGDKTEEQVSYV

[4] = molecular target: T3, Dopamine D3 (Homo sapiens, UniProt P35462); assay: off-target screen panel; format: binding; details: Human recombinant, [^3H]Spiperone
T3 construct: purchased Eurofins Panlabs Discovery Services (Taiwan)

[5] = molecular target: T4, Adrenergic α1A (Rattus norvegicus, UniProt P43140); assay: off-target screen panel; format: binding; details: Rat submaxillary gland, [^3H]Prazosin
T4 construct: purchased Eurofins Panlabs Discovery Services (Taiwan)

[6] = molecular target: T5, Endothelin ETA (Homo sapiens, UniProt P25101); assay: off-target screen panel; format: binding; details: Human recombinant, [^125I]Endothelin-1
T5 construct: purchased Eurofins Panlabs Discovery Services (Taiwan)
T5 sequence (P25101 21-427): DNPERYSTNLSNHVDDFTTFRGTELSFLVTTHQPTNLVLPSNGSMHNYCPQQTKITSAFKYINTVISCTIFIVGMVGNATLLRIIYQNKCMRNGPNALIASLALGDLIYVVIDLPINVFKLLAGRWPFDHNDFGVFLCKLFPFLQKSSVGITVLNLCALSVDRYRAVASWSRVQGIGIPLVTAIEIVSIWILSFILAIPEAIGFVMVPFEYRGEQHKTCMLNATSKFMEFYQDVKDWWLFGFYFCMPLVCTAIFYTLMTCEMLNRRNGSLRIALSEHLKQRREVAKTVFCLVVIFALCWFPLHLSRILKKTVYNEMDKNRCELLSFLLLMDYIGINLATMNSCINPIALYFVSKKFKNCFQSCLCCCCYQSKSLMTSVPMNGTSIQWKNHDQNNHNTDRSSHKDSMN

[7] = molecular target: T6, GABAB1A (Homo sapiens, UniProt Q9UBS5); assay: off-target screen panel; format: binding; details: Human recombinant, [^3H]CGP-54626
T6 construct: purchased Eurofins Panlabs Discovery Services (Taiwan)

[8] = test system: 67 non-PDE molecules; assay: off-target screen panel, overall statement; format: binding; details: all 67 non-PDE molecules of the panel
[9] = molecular target: T7, Transporter, Norepinephrine (NET) (Homo sapiens, UniProt P23975); assay: off-target screen panel; format: binding; details: Human recombinant, [^125I]RTI-55
T7 construct: purchased Eurofins Panlabs Discovery Services (Taiwan)
T7 sequence (P23975 whole entry): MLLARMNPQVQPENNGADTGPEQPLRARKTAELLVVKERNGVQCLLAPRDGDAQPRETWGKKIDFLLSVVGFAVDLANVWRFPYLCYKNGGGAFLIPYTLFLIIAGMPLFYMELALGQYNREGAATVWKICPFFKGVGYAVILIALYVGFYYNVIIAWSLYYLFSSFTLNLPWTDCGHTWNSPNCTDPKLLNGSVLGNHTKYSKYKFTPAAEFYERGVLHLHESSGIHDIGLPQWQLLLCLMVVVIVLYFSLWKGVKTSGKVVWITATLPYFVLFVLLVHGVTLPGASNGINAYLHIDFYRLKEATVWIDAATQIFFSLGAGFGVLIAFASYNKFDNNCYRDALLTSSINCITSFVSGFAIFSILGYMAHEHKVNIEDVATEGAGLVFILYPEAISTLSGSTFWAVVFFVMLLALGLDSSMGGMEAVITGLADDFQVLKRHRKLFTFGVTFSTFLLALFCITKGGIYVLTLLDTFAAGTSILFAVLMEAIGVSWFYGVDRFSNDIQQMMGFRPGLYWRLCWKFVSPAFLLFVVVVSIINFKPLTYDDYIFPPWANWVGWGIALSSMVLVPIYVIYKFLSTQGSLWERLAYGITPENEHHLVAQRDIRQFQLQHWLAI

[10] = molecular target: Glutamate, NMDA, Glycine (Rattus norvegicus, UniProt P35439); assay: off-target screen panel; format: binding; details: Rat cerebral cortex, [^3H]MDL 105,519
[11] = molecular target: T8, Bradykinin B2 (Homo sapiens, UniProt P30411); assay: off-target screen panel; format: binding; details: Human recombinant, [^3H]Bradykinin
T8 construct: purchased Eurofins Panlabs Discovery Services (Taiwan)

[12] = molecular target: T9, Tachykinin NK1 (Homo sapiens, UniProt P25103); assay: off-target screen panel; format: binding; details: Human recombinant, [^3H]Substance P
T9 construct: purchased Eurofins Panlabs Discovery Services (Taiwan)
T9 sequence (P25103 whole entry): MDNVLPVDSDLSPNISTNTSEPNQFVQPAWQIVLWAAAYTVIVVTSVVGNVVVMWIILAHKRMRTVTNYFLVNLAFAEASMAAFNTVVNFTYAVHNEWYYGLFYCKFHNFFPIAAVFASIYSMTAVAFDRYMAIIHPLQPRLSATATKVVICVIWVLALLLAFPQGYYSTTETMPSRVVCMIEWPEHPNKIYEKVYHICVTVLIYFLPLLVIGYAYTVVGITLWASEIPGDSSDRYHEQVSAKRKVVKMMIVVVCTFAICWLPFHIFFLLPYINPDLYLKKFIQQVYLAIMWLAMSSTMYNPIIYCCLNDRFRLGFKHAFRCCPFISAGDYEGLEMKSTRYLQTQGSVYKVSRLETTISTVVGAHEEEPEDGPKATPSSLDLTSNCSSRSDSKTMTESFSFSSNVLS

[13] = molecular target: T10, Adrenergic β1 (Homo sapiens, UniProt P08588); assay: off-target screen panel; format: binding; details: Human recombinant, [^125I]Cyanopindolol
T10 construct: purchased Eurofins Panlabs Discovery Services (Taiwan)

[14] = molecular target: T11, Platelet Activating Factor (PAF) (Homo sapiens, UniProt P25105); assay: off-target screen panel; format: binding; details: Human platelets, [^3H]PAF
T11 construct: purchased Eurofins Panlabs Discovery Services (Taiwan)

[15] = molecular target: T12, Interleukin IL-1 R1 (Homo sapiens, UniProt P14778); assay: off-target screen panel; format: binding; details: Human recombinant, [^125I]Interleukin-1β
T12 construct: purchased Eurofins Panlabs Discovery Services (Taiwan)

[16] = molecular target: T13, Transporter, Serotonin (5-Hydroxytryptamine) (SERT) (Homo sapiens, UniProt P31645); assay: off-target screen panel; format: binding; details: Human recombinant, [^3H]Paroxetine
T13 construct: purchased Eurofins Panlabs Discovery Services (Taiwan)

[17] = molecular target: T14, Histamine H3 (Homo sapiens, UniProt Q9Y5N1); assay: off-target screen panel; format: binding; details: Human recombinant, [^3H]N-α-Methylhistamine
T14 construct: purchased Eurofins Panlabs Discovery Services (Taiwan)

[18] = test system: Calcium Channel L-Type, Benzothiazepine; assay: off-target screen panel; format: binding; details: Rat brain, [^3H]Diltiazem
[19] = test system: Calcium Channel L-Type, Dihydropyridine; assay: off-target screen panel; format: binding; details: Rat cerebral cortex, [^3H]Nitrendipine
[20] = molecular target: T15, Prostanoid EP4 (Homo sapiens, UniProt P35408); assay: off-target screen panel; format: binding; details: Human recombinant, [^3H]Prostaglandin E2 (PGE2)
T15 construct: purchased Eurofins Panlabs Discovery Services (Taiwan)

[21] = molecular target: T16, Nicotinic Acetylcholine α1, Bungarotoxin (Homo sapiens, UniProt P02708+P07510+Q07001); assay: off-target screen panel; format: binding; details: read-out: Inhibition (%) at 1 μM
T16 construct: purchased Eurofins Panlabs Discovery Services (Taiwan)
T16 sequence (Q07001 22-517): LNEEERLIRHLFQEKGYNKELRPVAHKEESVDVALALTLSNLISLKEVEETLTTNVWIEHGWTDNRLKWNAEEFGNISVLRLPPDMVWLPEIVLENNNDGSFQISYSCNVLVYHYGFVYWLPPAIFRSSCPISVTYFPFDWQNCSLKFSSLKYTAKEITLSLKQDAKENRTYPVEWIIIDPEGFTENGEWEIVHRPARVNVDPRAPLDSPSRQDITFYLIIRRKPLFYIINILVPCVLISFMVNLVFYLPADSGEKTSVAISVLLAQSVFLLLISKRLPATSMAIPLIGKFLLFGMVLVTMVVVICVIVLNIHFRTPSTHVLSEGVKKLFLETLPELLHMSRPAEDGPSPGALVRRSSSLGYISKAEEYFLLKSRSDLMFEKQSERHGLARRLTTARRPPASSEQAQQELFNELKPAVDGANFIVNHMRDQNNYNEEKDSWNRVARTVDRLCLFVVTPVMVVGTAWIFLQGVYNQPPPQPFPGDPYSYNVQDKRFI
T16 sequence (P02708 21-457): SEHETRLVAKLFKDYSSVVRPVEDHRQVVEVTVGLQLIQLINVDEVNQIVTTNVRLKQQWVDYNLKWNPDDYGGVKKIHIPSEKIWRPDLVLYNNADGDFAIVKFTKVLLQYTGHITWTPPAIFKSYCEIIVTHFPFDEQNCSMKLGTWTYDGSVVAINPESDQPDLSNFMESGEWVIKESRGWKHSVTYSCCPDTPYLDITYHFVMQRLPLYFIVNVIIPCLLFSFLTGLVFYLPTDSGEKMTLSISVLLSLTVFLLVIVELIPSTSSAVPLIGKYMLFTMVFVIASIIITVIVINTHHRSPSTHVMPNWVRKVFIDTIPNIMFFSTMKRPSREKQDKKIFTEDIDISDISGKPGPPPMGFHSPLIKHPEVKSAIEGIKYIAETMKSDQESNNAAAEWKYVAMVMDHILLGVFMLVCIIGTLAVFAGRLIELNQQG
T16 sequence (P07510 23-517): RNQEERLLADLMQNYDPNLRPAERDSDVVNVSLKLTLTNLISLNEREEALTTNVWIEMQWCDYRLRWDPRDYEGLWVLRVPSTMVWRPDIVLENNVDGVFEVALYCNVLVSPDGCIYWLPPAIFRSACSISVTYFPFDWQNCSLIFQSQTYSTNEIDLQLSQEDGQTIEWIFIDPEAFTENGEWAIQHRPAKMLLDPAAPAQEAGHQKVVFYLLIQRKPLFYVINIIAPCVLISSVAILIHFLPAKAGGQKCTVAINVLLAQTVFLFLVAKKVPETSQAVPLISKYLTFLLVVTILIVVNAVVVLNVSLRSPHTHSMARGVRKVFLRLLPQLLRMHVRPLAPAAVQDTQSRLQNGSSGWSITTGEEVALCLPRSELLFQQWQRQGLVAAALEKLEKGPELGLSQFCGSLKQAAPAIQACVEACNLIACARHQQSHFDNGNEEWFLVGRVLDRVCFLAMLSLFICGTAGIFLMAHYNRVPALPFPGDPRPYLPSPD
T16 sequence (P11230 24-501, further chain): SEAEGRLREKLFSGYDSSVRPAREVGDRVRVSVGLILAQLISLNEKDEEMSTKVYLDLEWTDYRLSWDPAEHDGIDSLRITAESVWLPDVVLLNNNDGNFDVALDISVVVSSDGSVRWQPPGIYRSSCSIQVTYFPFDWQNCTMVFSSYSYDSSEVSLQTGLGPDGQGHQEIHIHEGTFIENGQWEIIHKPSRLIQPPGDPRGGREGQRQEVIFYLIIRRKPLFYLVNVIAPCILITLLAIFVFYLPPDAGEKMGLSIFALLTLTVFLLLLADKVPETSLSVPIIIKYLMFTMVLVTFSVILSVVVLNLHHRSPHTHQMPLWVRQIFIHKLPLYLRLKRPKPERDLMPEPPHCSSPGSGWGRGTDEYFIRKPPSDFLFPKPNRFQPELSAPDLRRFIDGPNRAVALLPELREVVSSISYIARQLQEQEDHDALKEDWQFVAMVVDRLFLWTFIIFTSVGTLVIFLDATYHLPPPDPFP

[22] = molecular target: T17, Androgen (Testosterone) (Homo sapiens, UniProt P10275); assay: off-target screen panel; format: binding; details: Human LNCaP clone, [^3H]Methyltrienolone
T17 construct: purchased Eurofins Panlabs Discovery Services (Taiwan)

[23] = molecular target: T18, Opiate κ (OP2, KOP) (Homo sapiens, UniProt P41145); assay: off-target screen panel; format: binding; details: Human recombinant, [^3H]Diprenorphine
T18 construct: purchased Eurofins Panlabs Discovery Services (Taiwan)

[24] = test system: Glutamate, Kainate; assay: off-target screen panel; format: binding; details: Rat brain cortex, [^3H]Kainic acid
[25] = molecular target: T19, Dopamine D4.2 (Homo sapiens, UniProt P21917, DEL265-296); assay: off-target screen panel; format: binding; details: Human recombinant, [^3H]Spiperone
T19 construct: purchased Eurofins Panlabs Discovery Services (Taiwan)

[26] = test system: Glutamate, NMDA, Agonism; assay: off-target screen panel; format: binding; details: Rat cerebral cortex, [^3H]CGP-39653
[27] = test system: PDE4; assay: off-target screen panel; format: binding; details: Rat brain, [^3H]Rolipram
[28] = test system: GABAA, Flunitrazepam, Central; assay: off-target screen panel; format: binding; details: Rat brain (minus cerebellum), [^3H]Flunitrazepam
[29] = test system: Nicotinic Acetylcholine; assay: off-target screen panel; format: binding; details: Human IMR-32 cells, [^125I]Epibatidine
[30] = test system: Transporter, GABA; assay: off-target screen panel; format: binding; details: Rat cerebral cortex, [^3H]GABA
[31] = molecular target: T20, Bradykinin B1 (Homo sapiens, UniProt P46663); assay: off-target screen panel; format: binding; details: Human IMR-90 cells, [^3H](Des-Arg^10)-Kallidin
T20 construct: purchased Eurofins Panlabs Discovery Services (Taiwan)

[32] = molecular target: T21, Endothelin ETB (Homo sapiens, UniProt P24530); assay: off-target screen panel; format: binding; details: Human recombinant, [^125I]Endothelin-1
T21 construct: purchased Eurofins Panlabs Discovery Services (Taiwan)
T21 sequence (P24530 27-442): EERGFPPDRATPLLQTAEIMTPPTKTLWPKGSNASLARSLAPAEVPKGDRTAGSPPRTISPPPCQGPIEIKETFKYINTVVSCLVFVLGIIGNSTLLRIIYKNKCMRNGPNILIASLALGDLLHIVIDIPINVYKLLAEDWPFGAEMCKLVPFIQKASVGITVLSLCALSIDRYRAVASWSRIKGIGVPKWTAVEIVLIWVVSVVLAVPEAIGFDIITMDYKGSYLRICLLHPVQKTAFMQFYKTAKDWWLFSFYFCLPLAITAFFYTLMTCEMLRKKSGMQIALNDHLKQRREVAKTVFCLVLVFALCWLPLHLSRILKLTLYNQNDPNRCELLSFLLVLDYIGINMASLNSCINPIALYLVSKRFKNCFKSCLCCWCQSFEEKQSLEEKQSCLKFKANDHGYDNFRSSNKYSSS

[33] = molecular target: T22, Muscarinic M3 (Homo sapiens, UniProt P20309); assay: off-target screen panel; format: binding; details: Human recombinant, [^3H]N-Methylscopolamine
T22 construct: purchased Eurofins Panlabs Discovery Services (Taiwan)

[34] = molecular target: T23, Transporter, Dopamine (DAT) (Homo sapiens, UniProt Q01959); assay: off-target screen panel; format: binding; details: Human recombinant, [^125I]RTI-55
T23 construct: purchased Eurofins Panlabs Discovery Services (Taiwan)

[35] = molecular target: T24, Neuropeptide Y Y1 (Homo sapiens, UniProt P25929); assay: off-target screen panel; format: binding; details: Human SK-N-MC cells, [^125I]Peptide YY
T24 construct: purchased Eurofins Panlabs Discovery Services (Taiwan)

[36] = Solubility; format: physicochemical
[37] = molecular target: T25, Adrenergic β2 (Homo sapiens, UniProt P07550); assay: off-target screen panel; format: binding; details: Human recombinant, [^3H]CGP-12177
T25 construct: purchased Eurofins Panlabs Discovery Services (Taiwan)
T25 sequence (P07550 whole entry): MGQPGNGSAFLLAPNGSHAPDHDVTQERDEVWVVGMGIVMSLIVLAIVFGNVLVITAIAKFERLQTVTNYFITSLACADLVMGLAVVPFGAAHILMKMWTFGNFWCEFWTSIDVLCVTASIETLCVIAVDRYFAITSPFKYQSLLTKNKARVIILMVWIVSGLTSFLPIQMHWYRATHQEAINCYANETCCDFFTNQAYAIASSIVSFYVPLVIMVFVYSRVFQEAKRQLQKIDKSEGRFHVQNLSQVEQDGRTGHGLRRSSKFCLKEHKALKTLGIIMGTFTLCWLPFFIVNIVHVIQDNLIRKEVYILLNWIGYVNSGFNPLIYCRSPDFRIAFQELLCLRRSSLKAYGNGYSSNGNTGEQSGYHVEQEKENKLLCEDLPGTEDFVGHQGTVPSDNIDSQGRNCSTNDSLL

## C[C@@H]1CC[C@H](C)N(c2nnc3c(N)ncc(C#N)n23)C1 (relative stereo) [MTP38, 8-amino-3-(2S*,5R*-dimethyl-1-piperidyl)-[1,2,4]triazolo[4,3-a]pyrazine-5-carbonitrile]
[1]
  Inhibition (%) at 1 μM: -3%
[2]
  inhibition at 1 µM: -12%
[3]
  inhibition at 1 µM: -1%
[4]
  inhibition at 1 µM: 0%
[5]
  inhibition at 1 µM: 8%
[6]
  inhibition at 1 µM: -10%
[7]
  inhibition at 1 µM: -10%
[8]
  inhibitions at 1 μM of the 67 non-PDE molecules tested: less than 50%
[9]
  inhibition at 1 µM: 6%
[10]
  inhibition at 1 µM: -15%
[11]
  inhibition at 1 µM: 2%
[12]
  inhibition at 1 µM: 9%
[13]
  inhibition at 1 µM: -2%
[14]
  inhibition at 1 µM: 4%
[15]
  inhibition at 1 µM: -5%
[16]
  inhibition at 1 µM: -14%
[17]
  inhibition at 1 µM: 9%
[18]
  Inhibition (%) at 1 μM: 16%
[19]
  Inhibition (%) at 1 μM: 7%
[20]
  inhibition at 1 µM: 8%
[21]
  inhibition at 1 µM: 15%
[22]
  inhibition at 1 µM: 1%
[23]
  inhibition at 1 µM: 9%
[24]
  Inhibition (%) at 1 μM: -2%
[25]
  inhibition at 1 µM: -3%
[26]
  Inhibition (%) at 1 μM: -3%
[27]
  Inhibition (%) at 1 μM: 74%
[28]
  Inhibition (%) at 1 μM: -2%
[29]
  Inhibition (%) at 1 μM: -8%
[30]
  Inhibition (%) at 1 μM: -2%
[31]
  inhibition at 1 µM: 9%
[32]
  inhibition at 1 µM: 3%
[33]
  inhibition at 1 µM: -21%
[34]
  inhibition at 1 µM: 22%
[35]
  inhibition at 1 µM: -13%
[36]
  solubility: low solubility
[37]
  inhibition at 1 µM: -14%
